Tests used:
Format in all cases: in vivo
Phytophthora infestans = assay: whole plant or invertebrate; details: in Solanum lycopersicum, 96 h, read-out: Determination of control effect (preventive value)
Sphaerotheca fuliginea = assay: Test of examining control effect on Sphaerotheca fuliginea (potted cucumber plants); details: Podosphaera fuliginea, 336 h; 10% wettable powder adjusted to 125 ppm, 15 ml/pot sprayed on potted cucumber plants one day before spray inoculation; assessed after 14 days in greenhouse; read-out: Determination of control effect (preventive value) on Sphaerotheca fuliginea
Description: (§1) Calculation of Preventive Value: Preventive value={(untreated lesion area rate−treated lesion area rate)/untreated lesion area rate}×100
(§2) Using the thus calculated preventive value, the control effect of each compound was determined in accordance with the following standards.
(§3) High control effect: 100%≧preventive value≧60%
(§4) Low control effect: 60%>preventive value≧0%
Using a spray gun, an agent solution prepared by adjusting a 10% wettable powder of each sample compound to 125 ppm (hereinafter referred to as a “sample agent solution”) was sprayed to potted cucumber plants (variety: Sagamihanjiro, 2nd leave stage) in a concentration of 15 ml/pot. One day after the spraying, a conidial suspension of Sphaerotheca fuliginea (conidial concentration: 1.0×10^5 cells/ml) was applied to the plants by spray inoculation. The plants were left in a greenhouse for 14 days, so that they were fully infected with the aforementioned disease. Thereafter, the disease level on each leaf was compared with that on an untreated leaf, and the control effect of each compound was determined in the same manner as in Example 3(1).

[1] = system: Pseudoperonospora cubensis; assay: Test of examining control effect on Pseudoperonospora cubensis (potted cucumber plants); details: 96 h, 10% wettable powder adjusted to 125 ppm, 15 ml/pot sprayed on potted cucumber plants one day before spray inoculation, assessed after 1 day wet chamber and 3 days greenhouse, read-out: Determination of control effect (preventive value) on Pseudoperonospora cubensis
Description: as §1, §2, §3, §4
Using a spray gun, an agent solution prepared by adjusting a 10% wettable powder of each sample compound to 125 ppm (hereinafter referred to as a “sample agent solution”) was sprayed to potted cucumber plants (variety: Sagamihanjiro, 2.5 leave stage) in a concentration of 15 ml/pot. One day after the spraying, a conidial suspension of Pseudoperonospora cubensis (conidial concentration: 1.0×10^4 cells/ml) was applied to the plants by spray inoculation. After completion of the inoculation, the plants were left at 21° C. under wet chamber conditions for 1 day, and were then left in a greenhouse for 3 days, so that they were fully infected with the aforementioned disease. Thereafter, the disease level on each leaf was compared with that on an untreated leaf, and the control effect of each compound was determined in the same manner as in Example 3(1).

| SMILES | pest or weed control at 125 ppm (Phytophthora infestans) [%] | pest or weed control at 125 µg/mL (Sphaerotheca fuliginea) [%] | pest or weed control at 125 µg/mL [1] [%] |
| --- | --- | --- | --- |
| C[Si](C)(C)C#CCCNc1ncnc2sccc12 [Compound No. 2, 4-(4-Trimethylsilanyl-3-butynylamino)thieno[2,3-d]pyrimidine] | 60 to 100 | 60 to 100 | 60 to 100 |
| C#CCCNc1ncnc2sccc12 [compound 1, 4-(3-butynylamino)thieno[2,3-d]pyrimidine] | 0 to 60 | 0 to 60 | 0 to 60 |
| CC[Si](C#CCCNc1ncnc2sccc12)(CC)CC [compound 3] | 0 to 60 | 60 to 100 | 60 to 100 |
| CC(C)CC#CCCNc1ncnc2sccc12 [compound 7, 4-(6-Methyl-3-heptynylamino)thieno[2,3-d]pyrimidine] | 60 to 100 | 60 to 100 | 60 to 100 |
| CC(C)(C)C#CCCNc1ncnc2sccc12 [compound 8] | 60 to 100 | 60 to 100 | 60 to 100 |
| C(#CCc1ccccc1)CCNc1ncnc2sccc12 [compound 9] | 0 to 60 | 60 to 100 | 60 to 100 |
| Fc1ccccc1C#CCCNc1ncnc2sccc12 [compound 11] | 60 to 100 | 60 to 100 | 60 to 100 |
| Fc1cccc(C#CCCNc2ncnc3sccc23)c1 [compound 12] | 0 to 60 | 60 to 100 | 60 to 100 |
| Fc1ccc(C#CCCNc2ncnc3sccc23)cc1 [compound 13] | 0 to 60 | 60 to 100 | 60 to 100 |
| Clc1ccccc1C#CCCNc1ncnc2sccc12 [compound 14] | 0 to 60 | 60 to 100 | 60 to 100 |
| Clc1cccc(C#CCCNc2ncnc3sccc23)c1 [compound 15] | 0 to 60 | 60 to 100 | 60 to 100 |
| Cc1ccccc1C#CCCNc1ncnc2sccc12 [compound 17] | 60 to 100 | 60 to 100 | 60 to 100 |
| COc1ccccc1C#CCCNc1ncnc2sccc12 [compound 21] | 60 to 100 | 0 to 60 | 60 to 100 |
| COc1ccc(C#CCCNc2ncnc3sccc23)cc1 [compound 23] | 60 to 100 | 60 to 100 | 60 to 100 |
| FC(F)(F)c1ccccc1C#CCCNc1ncnc2sccc12 [compound 25] | 60 to 100 | 60 to 100 | 60 to 100 |
| FC(F)(F)c1ccc(C#CCCNc2ncnc3sccc23)cc1 [compound 27] | 0 to 60 | 60 to 100 | 60 to 100 |
| COC(=O)c1ccc(C#CCCNc2ncnc3sccc23)cc1 [compound 31] | 0 to 60 | 0 to 60 | 60 to 100 |
| FC(F)(F)Oc1ccccc1C#CCCNc1ncnc2sccc12 [compound 32] | 60 to 100 | – | 60 to 100 |
| FC(F)(F)Oc1cccc(C#CCCNc2ncnc3sccc23)c1 [compound 33] | 60 to 100 | – | 60 to 100 |
| FC(F)(F)Oc1ccc(C#CCCNc2ncnc3sccc23)cc1 [compound 34] | 60 to 100 | – | 60 to 100 |
| N#Cc1ccccc1C#CCCNc1ncnc2sccc12 [compound 35] | 60 to 100 | – | 60 to 100 |
| N#Cc1cccc(C#CCCNc2ncnc3sccc23)c1 [compound 36] | 60 to 100 | – | 60 to 100 |
| N#Cc1ccc(C#CCCNc2ncnc3sccc23)cc1 [compound 37] | 60 to 100 | – | 60 to 100 |
| OCc1ccccc1C#CCCNc1ncnc2sccc12 [compound 44] | 60 to 100 | – | 60 to 100 |
| COCc1ccccc1C#CCCNc1ncnc2sccc12 [compound 45] | 60 to 100 | – | 60 to 100 |

| SMILES | pest or weed control at 125 ppm (Phytophthora infestans) [%] | pest or weed control at 125 µg/mL (Sphaerotheca fuliginea) [%] | pest or weed control at 125 µg/mL [1] [%] |
| --- | --- | --- | --- |
| CCOCc1ccccc1C#CCCNc1ncnc2sccc12 [compound 46] | 60 to 100 | – | 60 to 100 |
| FCc1ccccc1C#CCCNc1ncnc2sccc12 [compound 47] | 60 to 100 | – | 60 to 100 |
| O=Cc1ccccc1C#CCCNc1ncnc2sccc12 [compound 48] | 60 to 100 | – | 60 to 100 |
| COCc1ccccc1C#CCCNc1ncnc2ccsc12 [compound 49] | 60 to 100 | – | 60 to 100 |
| COCc1ccccc1C#CCCNc1ncnc2c(C)csc12 [compound 50] | 60 to 100 | – | 60 to 100 |
| COCc1ccccc1C#CCCNc1ncnc2scc(C)c12 [compound 51] | 60 to 100 | – | 60 to 100 |
| C(#Cc1ccoc1)CCNc1ncnc2sccc12 [compound 52] | 0 to 60 | – | 60 to 100 |
| C(#Cc1cccs1)CCNc1ncnc2sccc12 [compound 53] | 0 to 60 | – | 60 to 100 |
| C(#Cc1ccsc1)CCNc1ncnc2sccc12 [compound 54] | 0 to 60 | – | 60 to 100 |
| C(#Cc1ccccn1)CCNc1ncnc2sccc12 [compound 55] | 60 to 100 | – | 60 to 100 |
| C(#Cc1ncccn1)CCNc1ncnc2sccc12 [compound 58] | 60 to 100 | 0 to 60 | 60 to 100 |
| COc1cc(OC)nc(C#CCCNc2ncnc3sccc23)n1 [compound 60] | 60 to 100 | 0 to 60 | 60 to 100 |
| Brc1csc(C#CCCNc2ncnc3sccc23)n1 [compound 64] | 0 to 60 | 0 to 60 | 60 to 100 |
| COc1nc(C#CCCNc2ncnc3sccc23)cs1 [compound 67] | 60 to 100 | 60 to 100 | 60 to 100 |
| FCc1nc(C#CCCNc2ncnc3sccc23)cs1 [compound 68] | 60 to 100 | 60 to 100 | 60 to 100 |
| O=Cc1nc(C#CCCNc2ncnc3sccc23)cs1 [compound 69] | 60 to 100 | 0 to 60 | 60 to 100 |
| CC(C)(C)[Si](C)(C)OCc1nc(C#CCCNc2ncnc3sccc23)cs1 [compound 71] | 60 to 100 | 60 to 100 | 60 to 100 |
| COCc1nc(C#CCCNc2ncnc3sccc23)cs1 [compound 72] | 60 to 100 | 60 to 100 | 60 to 100 |
| C#CCOCc1nc(C#CCCNc2ncnc3sccc23)cs1 [compound 74] | 60 to 100 | 60 to 100 | 60 to 100 |
| C(#Cc1csc(Cc2ccccc2)n1)CCNc1ncnc2sccc12 [compound 75, 4-[4-(2-Benzylthiazol-4-yl)-3-butynylamino]thieno[2,3-d]pyrimidine] | 60 to 100 | 60 to 100 | 60 to 100 |
| C(#Cc1csc(-c2cccs2)n1)CCNc1ncnc2sccc12 [compound 79] | 0 to 60 | 60 to 100 | 60 to 100 |
| CC(=O)Nc1ccccc1C#CCCNc1ncnc2ccccc12 [compound 160] | 0 to 60 | – | 0 to 60 |
| Cc1ccc(C#CCC(C)Nc2ncnc3sccc23)c(Cl)c1 (centres unmarked) [compound 255] | 60 to 100 | 60 to 100 | – |
| CC(CC#Cc1c(Cl)cc(F)cc1Cl)Nc1ncnc2sccc12 (centres unmarked) [compound 261] | – | 60 to 100 | 60 to 100 |
| Cc1cc(C)c(C#CCC(C)Nc2ncnc3sccc23)c(C)c1 (centres unmarked) [compound 263] | – | 60 to 100 | 60 to 100 |

Reference: patent US8586505B2 (SDS Biotech K. K., priority 2009, dated 2013)
